Test results published in US11684614B2, “Formulations of hydroxypyridonate actinide/lanthanide decorporation agents” (priority 2017, dated 2023).
Several values for one entry are separate records, joined by “and”; a condition that tells them apart may be missing. Equal values may be shown once.

Experiment: Repeated-treatment efficacy for removing an intravenous dose of 238Pu (excretion, tissue retention, clinical observations), female and male arms
Type: in vivo, Swiss-Webster mice
Conditions: for tissue content of 238Pu compared to saline control group: all analyzed tissues, all dosing regimens; for % Recovered Dose - Feces per Day: group H
Experimental: The objective of this study was to characterize the efficacy of 3,4,3-L1(1,2-HOPO) at enhancing elimination from an internal plutonium burden in female and male Swiss-Webster mice administered a soluble citrate complex of ^238Pu and treated multiple times, starting at 24 hours after the exposure. Efficacy was evaluated by comparing the tissue contents, urinary and fecal excretions of ^238Pu in treated animals versus untreated animals.
The medical countermeasure 3,4,3-L1(1,2-HOPO) was administered parenterally (ip) or orally (po) via consecutive injections or gavages (six daily or twelve twice daily) starting at 24 hours post contamination at the following four selected doses: 30 μmol/kg ip, 150 μmol/kg po, 300 μmol/kg po, and 600 μmol/kg po (equivalent to respective approximate human doses range of […], using the accepted conversion system of mouse doses into human equivalent doses—HED—based on body surface area). Oral doses also included the permeability enhancer selected during formulation development work.
• Challenge isotope: ^238Pu • Challenge dose: 25 nCi (i.e., approximately 0.8 μCi/kg) • Route of contamination: Intravenous (iv) tail-vein • Route of treatment: Intraperitoneal Injection (ip) or Oral (po) • Frequency of treatment: Multiple (once- or twice-daily for 6 days) doses, starting 24 hr postcontamination • Treatment dose calculation: Dose calculations (mg/kg or μmol/kg) for the decorporation agent were based on the individual body weight measured after contamination. • Study Duration: 11 days, in-life
c. […] Test article and control dose formulations were prepared within 1 day of dose administration, by weighing out the appropriate amount of test article, dispersing in vehicle. For ip solutions, the test article was used alone, while for oral suspensions, a mixture of test article and excipient (90:10, w:w) was used. The pH was adjusted to 7.0-7.4 for ip administration and 5.0-5.5 for oral administration with sterile NaOH. Dose formulations were prepared at room temperature and filter-sterilized. • Storage: 2-8° C.; refrigerated; protected from light. • Characterization: The concentration of each test article formulation was verified by high-performance liquid chromatography-mass spectrometry. • Test Article Handling: Test, reference, and control article formulations were handled with the use of eye protection, gloves, and a protective laboratory coat. • Correct Dose Assurance: The test article was weighed with calibrated balances. The administration of each dose formulation was properly documented, and the amount administered to each animal recorded.
e. Experimental Procedures (In-Life Evaluations and Euthanasia) • Contamination: Single administration by intravenous (iv) tail-vein injection (0.2 mL injection volume) under isoflurane anesthesia. Three standard 0.2 mL injections were performed into polyethylene bottles and pre-loaded with aliquots of concentrated nitric acid on each injection day. Six female and six male mice were culled for necropsy 1 hr post-contamination and were used as standards. A11 standards were processed and counted together with the final samples to allow verification of the contamination dose. • Dose Administration: Single administration by intraperitoneal injection (ip) or oral gavage (po) under isoflurane anesthesia. • Mortality/Morbidity: Assessed at least once daily. • Clinical Observations: Recorded once daily (4 hr post-dose on day of treatment), or more often as clinical signs warranted. […]

[1] = female mice, 30 μmol/kg, IP, 11-day necropsy
[2] = female mice, 30 μmol/kg, IP, 11-day necropsy, over untreated control group
[3] = female mice, 30 μmol/kg, IP, 11-day necropsy, vs untreated control group
[4] = male animals, Day-11 necropsy, animal group H
[5] = male arm table, Day 11 necropsy, animal group H
[6] = male mice, 30 μmol/kg, IP, 11-day necropsy
[7] = male mice, 30 μmol/kg, IP, 11-day necropsy, over untreated control group
[8] = male mice, 30 μmol/kg, IP, 11-day necropsy, vs untreated control group

Q: With `O=C(O)CN(CCN(CC(=O)O)CC(=O)O)CCN(CC(=O)O)CC(=O)O` [DTPA, diethylenetriaminepentaacetic acid, reference compound] as the compound, how does the 238Pu excretion path (female and male mice) read?
A: Its 238Pu excretion path is “through urine”.

Q: What about the “^238Pu excretion, Total Excretion, Avg” value [1] of the same compound?
A: The value was 72.13 percent recovered dose.

Q: What about the “^238Pu excretion, Total Feces, Avg” value [1] of the same compound?
A: The value was 30.20 percent recovered dose.

Q: And the “^238Pu excretion, Total Urine, Avg” value [1]?
A: Its value is 41.93 percent recovered dose.

Q: And the “^238Pu retention, GI Tract, Avg” value [1]?
A: The value was 0.54 percent recovered dose.

Q: And the “^238Pu retention, Kidney, Avg” value [1]?
A: The value was 0.13 percent recovered dose.

Q: And the “^238Pu retention, Liver, Avg” value [1]?
A: Its value is 4.14 percent recovered dose.

Q: And the “^238Pu retention, Soft Tissue, Avg” value [1]?
A: The value was 1.66 percent recovered dose.

Q: What about the “^238Pu retention, Total Body, Avg” value [1] of the same compound?
A: The value was 27.87 percent recovered dose.

Q: What about the “^238Pu retention, Total Bone, Avg” value [1] of the same compound?
A: Its value is 21.40 percent recovered dose.

Q: What about the “^238Pu percent increase in excretion, Total Excretion” value [2] of the same compound?
A: Its value is 143.34%.

Q: And the “^238Pu percent increase in excretion, Total Feces” value [2]?
A: The value was 106.02%.

Q: What about the “^238Pu percent increase in excretion, Total Urine” value [2] of the same compound?
A: The value was 192.03%.

Q: What about the “^238Pu percent tissue reduction, GI Tract” value [3] of the same compound?
A: Its value is 59.99%.

Q: And the “^238Pu percent tissue reduction, Kidney” value [3]?
A: Its value is 51.24%.

Q: And the “^238Pu percent tissue reduction, Liver” value [3]?
A: The value was 65.62%.

Q: And the “^238Pu percent tissue reduction, Soft Tissue” value [3]?
A: Its value is 41.56%.

Q: What about the “^238Pu percent tissue reduction, Total Body” value [3] of the same compound?
A: Its value is 43.90%.

Q: What about the “^238Pu percent tissue reduction, Total Bone” value [3] of the same compound?
A: Its value is 35.51%.

Q: What about the “tissue content of 238Pu compared to saline control group” value (female) of the same compound?
A: Its value is “large reductions”.

Q: And the “% Recovered Dose Combined Body” value [4]?
A: Its value is 31.58% and 24.29% and 33.79% and 30.93% and 32.00% and 29.03% and 23.14% and 27.41%.

Q: What about the “% Recovered Dose Combined Excreta” value [4] of the same compound?
A: Its value is 68.42% and 74.71% and 66.21% and 69.07% and 68.00% and 70.97% and 76.86% and 72.59%.

Q: And the “% Recovered Dose GI Tract” value [4]?
A: The value was 1.75% and 0.46% and 0.91% and 0.70% and 0.71% and 0.57% and 0.52% and 0.47%.

Q: And the “% Recovered Dose Kidney” value [4]?
A: Its value is 0.14% and 0.28% and 0.20% and 0.21% and 0.11% and 0.15% and 0.17%.

Q: And the “% Recovered Dose Liver” value [4]?
A: The value was 5.98% and 3.55% and 5.50% and 4.81% and 4.85% and 4.26% and 4.33% and 4.96%.

Q: What about the “% Recovered Dose Soft Tissue” value [4] of the same compound?
A: Its value is 2.40% and 1.47% and 2.34% and 2.95% and 2.10% and 1.91% and 1.81% and 1.44%.

Q: What about the “% Recovered Dose Total Bone” value [4] of the same compound?
A: Its value is 21.31% and 18.54% and 24.85% and 22.27% and 24.22% and 22.15% and 16.34% and 20.37%.

Q: And the “% Recovered Dose Urine per Day, Day 2” value [5]?
A: The value was 7.92% and 8.51% and 7.65% and 2.69% and 6.20% and 7.54% and 5.46% and 8.58%.

Q: And the “% Recovered Dose Urine per Day, Day 3” value [5]?
A: The value was 3.90% and 4.79% and 4.05% and 2.57% and 3.66% and 4.86% and 4.80% and 5.85%.

Q: What about the “% Recovered Dose Urine per Day, Day 4” value [5] of the same compound?
A: Its value is 3.05% and 3.34% and 2.72% and 0.84% and 2.10% and 3.61% and 2.55% and 2.58%.

Q: What about the “% Recovered Dose Urine per Day, Day 5” value [5] of the same compound?
A: The value was 1.94% and 1.91% and 2.47% and 1.16% and 1.62% and 3.01% and 2.10% and 2.23%.

Q: What about the “% Recovered Dose Urine per Day, Day 6” value [5] of the same compound?
A: Its value is 1.36% and 1.21% and 1.73% and 0.80% and 1.18% and 1.69% and 1.57% and 1.37%.

Q: And the “% Recovered Dose Urine per Day, Day 7” value [5]?
A: The value was 1.74% and 1.68% and 1.50% and 1.67% and 1.63% and 1.84% and 1.87% and 1.77%.

Q: And the “% Recovered Dose Urine per Day, Day 8” value [5]?
A: Its value is 0.96% and 0.76% and 0.90% and 0.53% and 0.64% and 0.85% and 1.18% and 0.65%.

Q: What about the “% Recovered Dose Urine per Day, Day 9” value [5] of the same compound?
A: The value was 0.92% and 0.50% and 1.01% and 0.62% and 0.49% and 0.72% and 0.87% and 0.69%.

Q: What about the “% Recovered Dose Urine per Day, Day 10” value [5] of the same compound?
A: Its value is 0.35% and 0.32% and 0.27% and 0.21% and 0.49% and 0.38%.

Q: What about the “% Recovered Dose Urine per Day, Day 11” value [5] of the same compound?
A: Its value is 0.20% and 0.84% and 0.25% and 0.28% and 0.33% and 0.44% and 0.55% and 0.31%.

Q: What about the “% Recovered Dose - Feces per Day” value (male mice, feces day 2, Day 11 necropsy) of the same compound?
A: The value was 2.78% and 4.90% and 1.40% and 7.06% and 3.40% and 6.60% and 7.14% and 5.64%.

Q: And the “% Recovered Dose - Feces per Day” value (male mice, feces day 3, Day 11 necropsy)?
A: The value was 3.63% and 6.69% and 4.80% and 10.31% and 4.70% and 6.91% and 8.25% and 7.45%.

Q: And the “% Recovered Dose - Feces per Day” value (male mice, feces day 4, Day 11 necropsy)?
A: Its value is 3.78% and 4.47% and 3.18% and 7.97% and 3.38% and 4.66% and 5.75% and 4.65%.

Q: And the “% Recovered Dose - Feces per Day” value (male mice, feces day 5, Day 11 necropsy)?
A: The value was 1.51% and 1.78% and 1.71% and 3.62% and 1.81% and 1.45% and 2.38% and 1.92%.

Q: And the “% Recovered Dose - Feces per Day” value (male mice, feces day 6, Day 11 necropsy)?
A: Its value is 1.64% and 2.00% and 2.45% and 2.79% and 1.57% and 1.96% and 1.83% and 1.74%.

Q: And the “% Recovered Dose - Feces per Day” value (male mice, feces day 7, Day 11 necropsy)?
A: The value was 1.05% and 1.04% and 1.03% and 2.05% and 1.28% and 0.78% and 1.36% and 3.81%.

Q: What about the “% Recovered Dose - Feces per Day” value (male mice, feces day 8, Day 11 necropsy) of the same compound?
A: Its value is 0.81% and 0.75% and 1.29% and 1.70% and 0.85% and 0.78% and 1.19% and 1.40%.

Q: And the “% Recovered Dose - Feces per Day” value (male mice, feces day 9, Day 11 necropsy)?
A: The value was 0.43% and 0.51% and 0.65% and 1.29% and 0.58% and 0.39% and 0.64% and 0.87%.

Q: What about the “% Recovered Dose - Feces per Day” value (male mice, feces day 10, Day 11 necropsy) of the same compound?
A: Its value is 0.38% and 0.40% and 0.33% and 0.79% and 0.42% and 0.30% and 0.52% and 0.68%.

Q: What about the “% Recovered Dose - Feces per Day” value (male mice, feces day 11, Day 11 necropsy) of the same compound?
A: Its value is 0.37% and 0.35% and 0.40% and 0.78% and 0.36% and 0.30% and 0.52% and 0.77%.

Q: And the “^238Pu excretion, Total Excretion, Avg” value [6]?
A: The value was 70.98 percent recovered dose.

Q: And the “^238Pu excretion, Total Feces, Avg” value [6]?
A: Its value is 35.89 percent recovered dose.

Q: And the “^238Pu excretion, Total Urine, Avg” value [6]?
A: Its value is 35.09 percent recovered dose.

Q: And the “^238Pu retention, GI Tract, Avg” value [6]?
A: Its value is 0.76 percent recovered dose.

Q: And the “^238Pu retention, Kidney, Avg” value [6]?
A: The value was 0.17 percent recovered dose.

Q: What about the “^238Pu retention, Liver, Avg” value [6] of the same compound?
A: Its value is 4.78 percent recovered dose.

Q: What about the “^238Pu retention, Soft Tissue, Avg” value [6] of the same compound?
A: The value was 2.05 percent recovered dose.

Q: What about the “^238Pu retention, Total Body, Avg” value [6] of the same compound?
A: Its value is 29.02 percent recovered dose.

Q: And the “^238Pu retention, Total Bone, Avg” value [6]?
A: The value was 21.26 percent recovered dose.

Q: What about the “238Pu percent increase in excretion, Total Excretion” value [7] of the same compound?
A: The value was 149.50%.

Q: And the “238Pu percent increase in excretion, Total Feces” value [7]?
A: The value was 140.57%.

Q: What about the “238Pu percent increase in excretion, Total Urine” value [7] of the same compound?
A: Its value is 159.88%.

Q: What about the “^238Pu percent tissue reduction, GI Trace” value [8] of the same compound?
A: The value was 61.32%.

Q: And the “^238Pu percent tissue reduction, Kidney” value [8]?
A: Its value is 47.89%.

Q: What about the “^238Pu percent tissue reduction, Liver” value [8] of the same compound?
A: The value was 71.51%.

Q: What about the “^238Pu percent tissue reduction, Soft Tissue” value [8] of the same compound?
A: The value was 42.09%.

Q: What about the “^238Pu percent tissue reduction, Total Body” value [8] of the same compound?
A: The value was 44.74%.

Q: What about the “^238Pu percent tissue reduction, Total Bone” value [8] of the same compound?
A: The value was 28.92%.

Q: And the “tissue content of 238Pu compared to saline control group” value (male)?
A: The value was “large reductions”.
